{"source": "patent US10513519B2", "about": "“Solid forms of (1S,4S)-4-(2-(((3S,4R)-3-fluorotetrahydro-2H-pyran-4-yl)amino)-8-((2,4,6-trichlorophenyl)amino)-9H-purin-9-yl)-1-methylcyclohexane-1-carboxamide and methods of their use” (Signal Pharmaceuticals, LLC, priority 2016, dated 2019)", "test_system": "cancer cell lines", "test": "Multiplexed cytotoxicity assay: cell proliferation (relative cell count IC50, GI50)", "format": "cell-based", "conditions": "Homo sapiens", "protocol": "(§1) Cells are grown in RPMI1640, 10% FBS, 2 mM L-alanyl-L-Glutamine, 1 mM Na pyruvate or a special medium in a humidified atmosphere of 5% CO2 at 37° C. Cells are seeded into 384-well plates and incubated in a humidified atmosphere of 5% CO2 at 37° C. Compounds are added 24 h post cell seeding. At the same time, a time zero untreated cell plate is generated. After a 72 hour incubation period, cells are fixed and stained with fluorescently labeled antibodies and nuclear dye to allow visualization of nuclei, apoptotic cells and mitotic cells. Apoptotic cells are detected using an anti-active caspase-3 antibody. Mitotic cells are detected using an anti phospho-histone-3 antibody. Compounds are serially diluted 3.16-fold and assayed over 10 concentrations in a final assay concentration of 0.1% DMSO from the highest test concentration of 10 μM. Automated fluorescence microscopy was carried out using a Molecular Devices ImageXpress Micro XL high-content imager, and images are collected with a 4× objective.\n(§2) Sixteen-bit TIFF images are acquired and analyzed with MetaXpress 5.1.0.41 software. Cell proliferation is measured by the signal intensity of the incorporated nuclear dye. The cell proliferation assay output is referred to as the relative cell count. To determine the cell proliferation end point, the cell proliferation data output is transformed to percentage of control (POC) using the following formula: POC=relative cell count(compound wells)/relative cell count(vehicle wells)×100\n(§3) GI50 is the concentration needed to reduce the observed growth by half. This is the concentration that inhibits the growth to the level midway between growth in untreated cells and the number of cells seeded in the well (Time zero value). The IC50 values are calculated using nonlinear regression to fit data to a sigmoidal 4 point, 4 parameter One-Site dose response model, where: y(fit)=A+[(B−A)/(1+((C/x)^D))].\nas §1, with “In another experiment, cells were grown” for “Cells are grown”, “Cells were” for “Cells are”, “Compounds were” for “Compounds are”, “plate was” for “plate is”, “cells were” for “cells are”, “images were” for “images are”\nas §2, with “images were” for “images are”, “proliferation was” for “proliferation is”, “output was” for “output is”\nas §3, with “GI50 refers to” for “GI50 is”, “This corresponds to” for “This is”, “values were” for “values are”", "key": {"[1]": {"conditions": "NCI-H446, 72 h, NCIH446, Lung, SCLC, 72 h"}, "[2]": {"conditions": "NCI-H460, 72 h, NCIH460, Lung, NSCLC, 72 h"}, "[3]": {"conditions": "NCI-H510A, 72 h, NCIH510A, Lung, SCLC"}, "[4]": {"conditions": "NCI-H520, 72 h, NCIH520, Lung, NSCLC, 72 h"}, "[5]": {"conditions": "NCI-H596, 72 h, NCIH596, Lung, NSCLC, 72 h"}, "[6]": {"conditions": "NCI-H661, 72 h, NCIH661, Lung, NSCLC, 72 h"}, "[7]": {"conditions": "NTERA-2-cl-D1, 72 h, NTERA2CLD1, Testis, 72 h"}, "[8]": {"conditions": "OE19, 72 h, OE19, Head and Neck, Esophageal, 72 h"}, "[9]": {"conditions": "OE33, 72 h, OE33, Head and Neck, Esophageal, 72 h"}, "[10]": {"conditions": "OVCAR-3, 72 h, OVCAR3, Female GU, Ovary, 72 h"}, "[11]": {"conditions": "PANC-1, 72 h, PANC1, Pancreas, 72 h"}, "[12]": {"conditions": "PSN1, 72 h, PSN1, Pancreas, 72 h"}, "[13]": {"conditions": "RL95-2, 72 h, RL952, Female GU, Uterus, 72 h"}, "[14]": {"conditions": "RPMI-6666, RPMI6666 (Hematopoietic and lymphoid, Lymphoma)"}, "[15]": {"conditions": "RPMI-7951, RPMI7951 (Skin, Melanoma)"}, "[16]": {"conditions": "RPMI-8226, 72 h, RPMI8226, Hematopoietic and lymphoid, Myeloma, 72 h"}, "[17]": {"conditions": "RS4-11, RS411 (Hematopoietic and lymphoid, Leukemia)"}, "[18]": {"conditions": "Raji, RAJI (Hematopoietic and lymphoid, Lymphoma)"}, "[19]": {"conditions": "Rec1, REC1 (Hematopoietic and lymphoid, Lymphoma)"}, "[20]": {"conditions": "SAOS-2, 72 h, SAOS2, Soft Tissue, Osteosarcoma, 72 h"}, "[21]": {"conditions": "SHP77, 72 h, SHP77, Lung, SCLC, 72 h"}, "[22]": {"conditions": "SJRH30, 72 h, SJRH30, Soft Tissue, Sarcoma, 72 h"}, "[23]": {"conditions": "SJSA-1, 72 h, SJSA1, Soft Tissue, Osteosarcoma, 72 h"}, "[24]": {"conditions": "SK-LMS-1, 72 h, SKLMS1, Soft Tissue, Sarcoma, 72 h"}, "[25]": {"conditions": "SK-MEL3, 72 h, SKMEL3, Skin, Melanoma, 72 h"}, "[26]": {"conditions": "SK-MEL-1, SKMEL1 (Skin, Melanoma)"}, "[27]": {"conditions": "SK-MEL-28, SKMEL28 (Skin, Melanoma)"}, "[28]": {"conditions": "SK-MES-1, 72 h, SKMES1, Lung, NSCLC, 72 h"}}, "data": [{"smiles": "C[C@]1(C(N)=O)CC[C@@H](n2c(Nc3c(Cl)cc(Cl)cc3Cl)nc3cnc(N[C@@H]4CCOC[C@H]4F)nc32)CC1", "note": "[Compound 1, cis-4-[2-{[(3S,4R)-3-fluorooxan-4-yl]amino}-8-(2,4,6-trichloroanilino)-9H-purin-9-yl]-1-methylcyclohexane-1-carboxamide]", "values": [{"measurement": "IC50", "setting": "NCI-H441, 72 h, NCIH441, Lung, NSCLC, 72 h", "result": 1250, "unit": "nM"}, {"measurement": "GI50", "setting": "[1]", "result": 327, "unit": "nM"}, {"measurement": "IC50", "setting": "[1]", "result": "> 10000", "unit": "nM"}, {"measurement": "GI50", "setting": "[2]", "result": "> 10000", "unit": "nM"}, {"measurement": "IC50", "setting": "[2]", "result": "> 10000", "unit": "nM"}, {"measurement": "GI50", "setting": "NCI-H508, NCIH508 (Colon)", "result": 28.8, "unit": "nM"}, {"measurement": "IC50", "setting": "NCI-H508, NCIH508 (Colon)", "result": 48.1, "unit": "nM"}, {"measurement": "GI50", "setting": "[3]", "result": 3700, "unit": "nM"}, {"measurement": "IC50", "setting": "[3]", "result": 6610, "unit": "nM"}, {"measurement": "GI50", "setting": "[4]", "result": 991, "unit": "nM"}, {"measurement": "IC50", "setting": "[4]", "result": 2130, "unit": "nM"}, {"measurement": "GI50", "setting": "[5]", "result": 2750, "unit": "nM"}, {"measurement": "IC50", "setting": "[5]", "result": "> 10000", "unit": "nM"}, {"measurement": "GI50", "setting": "[6]", "result": 1440, "unit": "nM"}, {"measurement": "IC50", "setting": "[6]", "result": 2640, "unit": "nM"}, {"measurement": "GI50", "setting": "NCI-H747, NCIH747 (Colon)", "result": 12, "unit": "nM"}, {"measurement": "IC50", "setting": "NCI-H747, NCIH747 (Colon)", "result": 44.5, "unit": "nM"}, {"measurement": "GI50", "setting": "[7]", "result": 44, "unit": "nM"}, {"measurement": "IC50", "setting": "[7]", "result": 50.7, "unit": "nM"}, {"measurement": "GI50", "setting": "[8]", "result": 340, "unit": "nM"}, {"measurement": "IC50", "setting": "[8]", "result": "> 10000", "unit": "nM"}, {"measurement": "GI50", "setting": "[9]", "result": 63, "unit": "nM"}, {"measurement": "IC50", "setting": "[9]", "result": 96.9, "unit": "nM"}, {"measurement": "GI50", "setting": "[10]", "result": "> 10000", "unit": "nM"}, {"measurement": "IC50", "setting": "[10]", "result": "> 10000", "unit": "nM"}, {"measurement": "GI50", "setting": "[11]", "result": 41.6, "unit": "nM"}, {"measurement": "IC50", "setting": "[11]", "result": 80, "unit": "nM"}, {"measurement": "GI50", "setting": "PFSK-1, PFSK1 (CNS, Glioma)", "result": 23.4, "unit": "nM"}, {"measurement": "IC50", "setting": "PFSK-1, PFSK1 (CNS, Glioma)", "result": "> 10000", "unit": "nM"}, {"measurement": "GI50", "setting": "[12]", "result": 8.3, "unit": "nM"}, {"measurement": "IC50", "setting": "[12]", "result": 9.2, "unit": "nM"}, {"measurement": "GI50", "setting": "RKOE6, RKOE6 (Colon)", "result": 75.3, "unit": "nM"}, {"measurement": "IC50", "setting": "RKOE6, RKOE6 (Colon)", "result": 107, "unit": "nM"}, {"measurement": "GI50", "setting": "[13]", "result": 9, "unit": "nM"}, {"measurement": "IC50", "setting": "[13]", "result": 59.9, "unit": "nM"}, {"measurement": "GI50", "setting": "[14]", "result": 80.1, "unit": "nM"}, {"measurement": "IC50", "setting": "[14]", "result": 370, "unit": "nM"}, {"measurement": "GI50", "setting": "[15]", "result": 71.6, "unit": "nM"}, {"measurement": "IC50", "setting": "[15]", "result": 94.5, "unit": "nM"}, {"measurement": "GI50", "setting": "[16]", "result": 1090, "unit": "nM"}, {"measurement": "IC50", "setting": "[16]", "result": 2480, "unit": "nM"}, {"measurement": "GI50", "setting": "[17]", "result": 359, "unit": "nM"}, {"measurement": "IC50", "setting": "[17]", "result": 2960, "unit": "nM"}, {"measurement": "GI50", "setting": "[18]", "result": 179, "unit": "nM"}, {"measurement": "IC50", "setting": "[18]", "result": "> 10000", "unit": "nM"}, {"measurement": "GI50", "setting": "[19]", "result": 5.3, "unit": "nM"}, {"measurement": "IC50", "setting": "[19]", "result": 193, "unit": "nM"}, {"measurement": "GI50", "setting": "[20]", "result": 3570, "unit": "nM"}, {"measurement": "IC50", "setting": "[20]", "result": 6880, "unit": "nM"}, {"measurement": "GI50", "setting": "SCC-4, SCC4 (Head and Neck)", "result": 51.2, "unit": "nM"}, {"measurement": "IC50", "setting": "SCC-4, SCC4 (Head and Neck)", "result": 108, "unit": "nM"}, {"measurement": "GI50", "setting": "SCC-9, SCC9 (Head and Neck)", "result": 117, "unit": "nM"}, {"measurement": "IC50", "setting": "SCC-9, SCC9 (Head and Neck)", "result": 280, "unit": "nM"}, {"measurement": "GI50", "setting": "SCC-25, SCC25 (Head and Neck)", "result": 43.9, "unit": "nM"}, {"measurement": "IC50", "setting": "SCC-25, SCC25 (Head and Neck)", "result": 51, "unit": "nM"}, {"measurement": "GI50", "setting": "SCaBER, SCABER (Bladder)", "result": 66.5, "unit": "nM"}, {"measurement": "IC50", "setting": "SCaBER, SCABER (Bladder)", "result": 77.2, "unit": "nM"}, {"measurement": "GI50", "setting": "[21]", "result": 4790, "unit": "nM"}, {"measurement": "IC50", "setting": "[21]", "result": 5820, "unit": "nM"}, {"measurement": "GI50", "setting": "[22]", "result": 219, "unit": "nM"}, {"measurement": "IC50", "setting": "[22]", "result": 1470, "unit": "nM"}, {"measurement": "GI50", "setting": "[23]", "result": 1160, "unit": "nM"}, {"measurement": "IC50", "setting": "[23]", "result": 2460, "unit": "nM"}, {"measurement": "GI50", "setting": "SK-BR-3, SKBR3 (Breast)", "result": 6810, "unit": "nM"}, {"measurement": "IC50", "setting": "SK-BR-3, SKBR3 (Breast)", "result": 8450, "unit": "nM"}, {"measurement": "GI50", "setting": "[24]", "result": 146, "unit": "nM"}, {"measurement": "IC50", "setting": "[24]", "result": 166, "unit": "nM"}, {"measurement": "GI50", "setting": "[25]", "result": 28.4, "unit": "nM"}, {"measurement": "IC50", "setting": "[25]", "result": 62.5, "unit": "nM"}, {"measurement": "GI50", "setting": "[26]", "result": 1, "unit": "nM"}, {"measurement": "IC50", "setting": "[26]", "result": 29.1, "unit": "nM"}, {"measurement": "GI50", "setting": "[27]", "result": 27.9, "unit": "nM"}, {"measurement": "IC50", "setting": "[27]", "result": 57.1, "unit": "nM"}, {"measurement": "GI50", "setting": "[28]", "result": 103, "unit": "nM"}, {"measurement": "IC50", "setting": "[28]", "result": 122, "unit": "nM"}]}]}
